# Laboratory results published in patent US11247976B2, “Synthetic ligands that modulate the activity of the RhlR quorum sensing receptor” (Wisconsin Alumni Research Foundation, priority 2016, dated 2022).
# Biological target: T1, RhlR (Pseudomonas aeruginosa, UniProt P54292)
# T1 construct: expressed in transfected cells; host or cells: E. coli JLD271 (ΔsdiA) with pJN105R2 (arabinose-induced) and pSC11-rhlI*
# Test: E. coli RhlR reporter agonism assay (JLD271/pJN105R2/pSC11-rhlI*)
# Format: cell-based, P. aeruginosa
# Settings: compound at 10 μM; RhlR activity relative to 1 mM BHL; E. coli reporter
# Experimental: (§1) All media and reagents for bacterial culture were purchased from commercial sources. Bacteria were cultured in Luria-Bertani broth (LB) at 37° C. with shaking at 200 rpm unless otherwise noted. The bacterial reporter strains used for this study were (i) the heterologous E. coli strain JLD271 (ΔsdiA) harboring the RhlR expression plasmid pJN105R2 and the rhlI-lacZ transcriptional fusion reporter pSC11-rhlI*, (ii) the heterologous E. coli strain JLD271 (ΔsdiA) harboring the LasR expression plasmid pJN105L and the […] transcriptional fusion reporter pSC11, and (iii) the P. aeruginosa strain PAO-JP2 (ΔlasrhlI) harboring the rhlI-gfp transcriptional fusion reporter prhlI-LVAgfp. Reporter strains JLD271/pJN105R2/pSC11-rhlI* and JLD271/pJN105L/pSC11 were grown in LB containing 100 μg/mL ampicillin and 10 μg/mL gentamicin. Freezer stocks of bacterial strains were maintained at −80° C. in 1:1 LB:50% glycerol.
# (§2) To evaluate the modulatory activities of library compounds on RhlR and LasR using E. coli reporters, the strains JLD271/pJN105R2/pSC11-rhlI* and JLD271/pJN105L/pSC11 were used, respectively, as previously described.^38, 51 The following modifications were used in the RhlR agonism reporter assay, non-native compounds (10 μM or 1 mM) were compared to 1 mM BHL as the positive control. Briefly, a subculture was prepared by diluting an overnight culture 1:10 with fresh media containing 100 μg/mL ampicillin and 10 μg/mL gentamicin, and was incubated until it had grown to OD600=0.45. In all assays, L-arabinose was added to a final concentration of 4 mg/mL to induce RhlR expression. For RhlR agonism assays, activities of test compounds were measured relative to 1 mM BHL (the concentration required to induce a maximal level of RhlR activity). For RhlR antagonism assays, test compounds were competed against a concentration of BHL approximately equal to its EC50 value (10 μM). Activity was measured relative to 10 μM BHL. Inhibition was calculated by subtracting 100% from the relative activity value. Thus, 0% inhibition mimics represents no competitive displacement of 10 μM BHL by a test compound. In all assays, modifications were made to the standard Miller assay protocol to accommodate the use of the chlorophenol red-β-D-galactopyranoside (CPRG) β-galactosidase substrate. After cell lysis, 150 μL of the aqueous layer was transferred from each well of a solvent-resistant 96-well microtiter plate to the wells of a new clear, flat-bottom 96-well microtiter plate. CPRG (4 mg/mL in phosphate-buffered saline) was added to each well in 25 μL volumes. Plates were incubated at 30° C. until the positive control wells developed a red color (approximately 30 min). The amount of processed CPRG substrate was assessed by measuring the absorbance of each well at 570 nm. Enzymatic activity was calculated using the following equation: adjusted Miller units=1000·Abs570/(OD600·t·V),
# (§3) where t is the incubation time of substrate with lysate and V is the volume of culture lysed.
# Because LuxR-type receptors are often unstable in solution, preventing the use of in vitro assays to directly assess small molecule agonism and antagonism, reporter gene assays represent a standard method for screening small-molecule libraries for LuxR-type receptor modulation. Previously reported strains for this purpose were used in the current study.^38 Synthetic N-butanoyl L-homoserine lactone (BHL), the native ligand of RhlR, was used as the positive control for receptor activation. Commonly, agonists are measured relative to maximum possible receptor activation within a particular assay medium;^40 because the dose-response curve of BHL is distinctly shallow in these RhlR reporters, a high concentration of BHL is required to maximally activate RhlR. In this study, activation of compounds was measured relative to that elicited by 1 mM BHL (the concentration of BHL used causes no aberrant growth effects in the reporter strain). […]
# T1 sequence (P54292 whole entry): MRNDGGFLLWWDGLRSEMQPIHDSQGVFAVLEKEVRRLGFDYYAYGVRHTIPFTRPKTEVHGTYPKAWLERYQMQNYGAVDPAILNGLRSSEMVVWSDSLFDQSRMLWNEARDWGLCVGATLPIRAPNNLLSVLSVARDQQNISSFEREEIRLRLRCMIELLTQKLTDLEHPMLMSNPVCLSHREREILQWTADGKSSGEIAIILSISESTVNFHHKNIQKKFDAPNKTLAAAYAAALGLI
Structure (SMILES),activation at 10 µM [%],% activation [%]
CC(C)CC(=O)NC1CCCC1 [RN39],0,
CCCC(=O)NCC1CCCO1 (centres unmarked) [RN10],0,
CCCC(=O)N[C@H]1CCNC1=O [RN9],1,
CCC(=O)N[C@H]1CCOC1=O [Compound C3-AHL],25,
CCCC(=O)NC1CCCC1 [RN4],0,
C#CCCCC(=O)N[C@H]1CCOC1=O [Compound J8],34,
C/C=C/CC(=O)N[C@H]1CCOC1=O [Compound J4],21,
C#CCCC(=O)N[C@H]1CCOC1=O [Compound J7],45,
CCC(C)(C)C(=O)N[C@H]1CCOC1=O [Compound J21],5,
"CCCCCCCCCC(=O)CC(=O)N[C@H]1CCOC1=O [OdDHL, N-(3-oxododecanoyl) HL, reference compound]",,5
CC(C)(C)C(=O)N[C@H]1CCOC1=O [Compound J20],1,
C=CCCCC(=O)N[C@H]1CCOC1=O [Compound J3],41,

# Same assay, conditions: single-concentration screen at 10 μM, E. coli reporter
row,Structure (SMILES),RhlR agonist activity in words
1,CCC(=O)N[C@H]1CCOC1=O [Compound C3-AHL],comparably less active than their respective counterparts
2,C#CCCC(=O)N[C@H]1CCOC1=O [Compound J7],activities statistically insignificant from native ligand BHL
3,CCC(C)(C)C(=O)N[C@H]1CCOC1=O [Compound J21],inactive as agonists
4,CC(C)(C)C(=O)N[C@H]1CCOC1=O [Compound J20],inactive as agonists

# Biological target: T1, RhlR
# Test: E. coli RhlR reporter antagonism assay vs 10 μM BHL (JLD271/pJN105R2/pSC11-rhlI*)
# Format: cell-based, P. aeruginosa
# Settings: E. coli reporter vs 10 μM BHL
# Experimental: as §1
# as §2, with “For RhlR antagonism assays, test compounds were competed against a concentration of BHL approximately equal to its EC50 value (10 μM).” left out
# as §3
# The RhlR-modulatory activity of the J library compounds was assessed in a heterologous reporter strain (E. coli JLD271 harboring plasmids pJN105R2 and pSC11-rhlI*) in order to isolate the RhlR receptor from upstream QS regulation (e.g. regulation by LasR). Thus, the extent to which compounds were directly modulating RhlR could be determined. These assays were performed by incubating compound-treated, mid-log phase E. coli reporter cells in 96-well microtiter plates, followed by Miller assay evaluation of ß-galactosidase activity.
# RhlR agonism and antagonism screens of each compound were performed initially at 10 μM.
row,Structure (SMILES),RhlR antagonist activity in words
1,CC(C)(C)C(=O)N[C@H]1CCOC1=O [Compound J20],capable of inhibiting RhlR activity to a statistically significant extent

# Same assay, conditions: compound at 10 μM in the presence of 10 μM BHL; negative = agonism stronger than 10 μM BHL alone
row,Structure (SMILES),% inhibition (10 μM) [%]
1,"CCCCCCCCCC(=O)CC(=O)N[C@H]1CCOC1=O [OdDHL, N-(3-oxododecanoyl) HL, reference compound]",18

# Same assay, conditions: read-out: % inhibition (10 μM), compound at 10 μM in the presence of 10 μM BHL; negative = agonism stronger than 10 μM BHL alone
row,Structure (SMILES),inhibition at 10 µM [%]
1,CC(C)CC(=O)NC1CCCC1 [RN39],11
2,CCCC(=O)NCC1CCCO1 (centres unmarked) [RN10],1
3,CCCC(=O)N[C@H]1CCNC1=O [RN9],-1
4,CCC(=O)N[C@H]1CCOC1=O [Compound C3-AHL],-5
5,CCCC(=O)NC1CCCC1 [RN4],9
6,C#CCCCC(=O)N[C@H]1CCOC1=O [Compound J8],-2
7,C/C=C/CC(=O)N[C@H]1CCOC1=O [Compound J4],9
8,C#CCCC(=O)N[C@H]1CCOC1=O [Compound J7],-7
9,CCC(C)(C)C(=O)N[C@H]1CCOC1=O [Compound J21],3
10,CC(C)(C)C(=O)N[C@H]1CCOC1=O [Compound J20],0
11,C=CCCCC(=O)N[C@H]1CCOC1=O [Compound J3],-4

# Same assay, conditions: read-out: % inhibition (1 mM), compound at 1 mM in the presence of 10 μM BHL; negative = agonism stronger than 10 μM BHL alone
row,Structure (SMILES),inhibition at 1000 µM [%]
1,CC(C)CC(=O)NC1CCCC1 [RN39],31
2,CCCC(=O)NCC1CCCO1 (centres unmarked) [RN10],57
3,CCCC(=O)N[C@H]1CCNC1=O [RN9],35
4,CCC(=O)N[C@H]1CCOC1=O [Compound C3-AHL],-66
5,CCCC(=O)NC1CCCC1 [RN4],45
6,C#CCCCC(=O)N[C@H]1CCOC1=O [Compound J8],-76
7,C/C=C/CC(=O)N[C@H]1CCOC1=O [Compound J4],-47
8,C#CCCC(=O)N[C@H]1CCOC1=O [Compound J7],-83
9,CCC(C)(C)C(=O)N[C@H]1CCOC1=O [Compound J21],7
10,CC(C)(C)C(=O)N[C@H]1CCOC1=O [Compound J20],25
11,C=CCCCC(=O)N[C@H]1CCOC1=O [Compound J3],-69

# Same assay, conditions: screened at a maximal concentration of 200 microM (solubility), in the presence of 10 μM BHL
row,Structure (SMILES),% inhibition at 200 µM [%]
1,"CCCCCCCCCC(=O)CC(=O)N[C@H]1CCOC1=O [OdDHL, N-(3-oxododecanoyl) HL, reference compound]",53
